{
  "source": "patent US9096597B2",
  "about": "(priority 2007, dated 2015)",
  "key": {"[1]": {"test_system": "Lassa GP-pseudotyped-virus", "test": "microbe, parasite or virus in culture", "format": "cell-based, Lassa fever virus"}, "[2]": {"test_system": "Machupo pseudotyped virus", "test": "organism not typed", "format": "cell-based", "settings": "read-out: Activity (EC50 in μM vs. pseudotyped virus) Machupo"}, "[3]": {"test_system": "Guanarito pseudotyped virus", "test": "organism not typed", "format": "cell-based", "settings": "read-out: Activity (EC50 in μM vs. pseudotyped virus) Guanarito"}, "[4]": {"test_system": "Junín pseudotyped virus", "test": "organism not typed", "format": "cell-based", "settings": "read-out: Activity (EC50 in μM vs. pseudotyped virus) Junín"}, "[5]": {"test_system": "Sabiá pseudotyped virus", "test": "organism not typed", "format": "cell-based", "settings": "read-out: Activity (EC50 in μM vs. pseudotyped virus) Sabiá"}, "[6]": {"test_system": "VSVg pseudotyped virus", "test": "microbe, parasite or virus in culture", "format": "cell-based, vesicular stomatitis virus (VSV)", "settings": "Vesicular stomatitis virus, read-out: Activity (EC50 in μM vs. pseudotyped virus) VSVg"}, "[7]": {"settings": "Human immunodeficiency virus 1, read-out: Activity (EC50 in μM vs. pseudotyped virus) Lassa"}},
  "note": "Structures can show the parent of a compound that is named as a salt. Where two headings read alike, the source gives them in different places.",
  "data": [
    {"smiles": "CCOc1ccc(-n2cnc3cc(NCc4ccc(CC)cc4)cnc32)cc1", "note": "[Compound 1, [3-(4-Ethoxy-phenyl)-3H-imidazo[4,5-b]pyridin-6-yl]-(4-ethyl-benzyl)-amine]", "values": [
      {"measurement": "potency against viral entry mediated by the Lassa envelope glycoprotein", "setting": "[1]", "result": "significantly increased potency"},
      {"measurement": "EC50", "setting": "[1]; Human immunodeficiency virus 1, HEK-293T, read-out: EC50 against Lassa GP-pseudotyped-virus", "result": 0.00013, "unit": "µM"},
      {"measurement": "EC50", "setting": "[1]; [7]", "result": "< 0.05", "unit": "µM"},
      {"measurement": "EC50", "setting": "[2]", "result": "< 0.05", "unit": "µM"},
      {"measurement": "EC50", "setting": "[3]", "result": "< 0.05", "unit": "µM"},
      {"measurement": "EC50", "setting": "[4]", "result": "< 0.05", "unit": "µM"},
      {"measurement": "EC50", "setting": "[5]", "result": "< 0.05", "unit": "µM"},
      {"measurement": "EC50", "setting": "[6]", "result": "1 to 50", "unit": "µM"}
    ]},
    {"smiles": "CCOc1ccc(-n2cnc3cc(NCc4ccc(CC)cc4)cnc32)cn1", "note": "[Compound 2, [3-(6-Ethoxy-pyridin-3-yl)-3H-imidazo[4,5-b]pyridin-6-yl]-(4-ethyl-benzyl)-amine]", "values": [
      {"measurement": "EC50", "setting": "[1]; [7]", "result": "< 0.05", "unit": "µM"},
      {"measurement": "EC50", "setting": "[6]", "result": "1 to 50", "unit": "µM"}
    ]},
    {"smiles": "CCOc1ccc(-n2cnc3cc(NCc4ccc(C)cn4)cnc32)cc1", "note": "[Compound 3, [3-(4-Ethoxy-phenyl)-3H-imidazo[4,5-b]pyridin-6-yl]-(5-methyl-pyridin-2-ylmethyl)-amine]", "values": [
      {"measurement": "EC50", "setting": "[1]; [7]", "result": "0.05 to 1", "unit": "µM"},
      {"measurement": "EC50", "setting": "[6]", "result": "> 50", "unit": "µM"}
    ]},
    {"smiles": "CCOc1ccc(-n2cnc3nc(NCc4ccc(CC)cc4)ccc32)cc1", "note": "[Compound 4, [1-(4-Ethoxy-phenyl)-1H-imidazo[4,5-b]pyridin-5-yl]-(4-ethyl-benzyl)-amine]", "values": [
      {"measurement": "EC50", "setting": "[1]; [7]", "result": "< 0.05", "unit": "µM"},
      {"measurement": "EC50", "setting": "[2]", "result": "0.05 to 1", "unit": "µM"},
      {"measurement": "EC50", "setting": "[5]", "result": "0.05 to 1", "unit": "µM"},
      {"measurement": "EC50", "setting": "[6]", "result": "> 50", "unit": "µM"}
    ]},
    {"smiles": "CCOc1ccc(-n2cnc3cc(N(Cc4ccc(CC)cc4)C(C)=O)cnc32)cc1", "note": "[Compound 6, N-[3-(4-Ethoxy-phenyl)-3H-imidazo[4,5-b]pyridin-6-yl]-N-(4-ethyl-benzyl)-acetamide]", "values": [
      {"measurement": "EC50", "setting": "[1]; [7]", "result": "0.05 to 1", "unit": "µM"},
      {"measurement": "EC50", "setting": "[2]", "result": "1 to 50", "unit": "µM"}
    ]},
    {"smiles": "CCOc1ccc(-n2cnc3cc(N(Cc4ccc(CC)cc4)C(=O)c4ccccc4)cnc32)cc1", "note": "[Compound 7, N-[3-(4-Ethoxy-phenyl)-3H-imidazo[4,5-b]pyridin-6-yl]-N-(4-ethyl-benzyl)-benzamide]", "values": [
      {"measurement": "EC50", "setting": "[1]; [7]", "result": "0.05 to 1", "unit": "µM"},
      {"measurement": "EC50", "setting": "[2]", "result": "0.05 to 1", "unit": "µM"}
    ]},
    {"smiles": "CCOc1ccc(-n2cnc3cc(N(Cc4ccc(CC)cc4)C(=O)CN(C)C)cnc32)cc1", "note": "[Compound 8, 2-Dimethylamino-N-[3-(4-ethoxy-phenyl)-3H-imidazo[4,5-b]pyridin-6-yl]-N-(4-ethyl-benzyl)-acetamide hydrochloride]", "values": [
      {"measurement": "EC50", "setting": "[1]; [7]", "result": "0.05 to 1", "unit": "µM"},
      {"measurement": "EC50", "setting": "[2]", "result": "0.05 to 1", "unit": "µM"}
    ]},
    {"smiles": "CCOc1ccc(-n2cnc3cc(N(Cc4ccc(CC)cc4)C(=O)CCC(=O)O)cnc32)cc1", "note": "[Compound 9, N-[3-(4-Ethoxy-phenyl)-3H-imidazo[4,5-b]pyridin-6-yl]-N-(4-ethyl-benzyl)-succinamic acid]", "values": [
      {"measurement": "EC50", "setting": "[1]; [7]", "result": "1 to 50", "unit": "µM"},
      {"measurement": "EC50", "setting": "[2]", "result": "1 to 50", "unit": "µM"}
    ]},
    {"smiles": "CCOc1ccc(-n2cnc3cc(N(Cc4ccc(CC)cc4)S(C)(=O)=O)cnc32)cc1", "note": "[Compound 10, N-[3-(4-Ethoxy-phenyl)-3H-imidazo[4,5-b]pyridin-6-yl]-N-(4-ethyl-benzyl)-methanesulfonamide]", "values": [
      {"measurement": "EC50", "setting": "[1]; [7]", "result": "1 to 50", "unit": "µM"},
      {"measurement": "EC50", "setting": "[2]", "result": "1 to 50", "unit": "µM"}
    ]},
    {"smiles": "CCOc1ccc(-n2cnc3cc(N(Cc4ccc(CC)cc4)S(=O)(=O)c4ccccc4)cnc32)cc1", "note": "[Compound 11, N-[3-(4-Ethoxy-phenyl)-3H-imidazo[4,5-b]pyridin-6-yl]-N-(4-ethyl-benzyl)-benzenesulfonamide]", "values": [
      {"measurement": "EC50", "setting": "[1]; [7]", "result": "0.05 to 1", "unit": "µM"},
      {"measurement": "EC50", "setting": "[2]", "result": "0.05 to 1", "unit": "µM"}
    ]},
    {"smiles": "CCOc1ccc(-n2nnc3cc(NCc4ccc(CC)cc4)cnc32)cc1", "note": "[Compound 12, [3-(4-Ethoxy-phenyl)-3H-[1,2,3]triazolo[4,5-b]pyridin-6-yl]-(4-ethyl-benzyl)-amine]", "values": [
      {"measurement": "EC50", "setting": "[1]; [7]", "result": "< 0.05", "unit": "µM"},
      {"measurement": "EC50", "setting": "[2]", "result": "0.05 to 1", "unit": "µM"},
      {"measurement": "EC50", "setting": "[5]", "result": "0.05 to 1", "unit": "µM"},
      {"measurement": "EC50", "setting": "[6]", "result": "> 50", "unit": "µM"}
    ]}
  ]
}
